Reference: US9650399B2, “Salicylic acid derivatives, pharmaceutically acceptable salt thereof, composition thereof and method of use thereof” (The Governing Council of the University of Toronto, priority 2012, dated 2017)

How the values were obtained:
147EF = experiment: alamarBlue cell viability, BTSC 147EF; format: cell-based, human; details: Homo sapiens, Table 4 library screen
How it was run: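 Glioma stem-cell spheres were dissociated to single cells and plated at 1500 cells/well (3000 cells/well in the repeat set). Serial dilutions were added one day after plating: 5 μM–100 nM in the first set, 25 μM–10 nM in the second. Viability was read by alamarBlue three days later, in triplicate.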

127EF = experiment: alamarBlue cell viability, BTSC 127EF; format: cell-based; details: Homo sapiens, read-out: EC50 against 127EF
Text: . BTSC spheres were dissociated to single cells with the enzyme Accumax (Innovative Technologies), seeded at 1500 cells/96-well and treated with drug or vehicle (DMSO) one day after plating. Cytotoxicity studies were repeated independently at Sickkids Hospital using BTSC lines 25M, 67EF, 73EF, 84EF and 127EF. BTSC spheres were dissociated to single cells as above and plated in 96 well plates in triplicate at 3000 cells/96-well. In both sets of experiments drugs were used as serial dilutions within the range of 5 μM to 100 nM in the first set and 25 μM to 10 nM. Cell viability following drug treatment was assessed three days later using the ALAMARBLUE™ assay (Invitrogen) according to the manufacturer's instructions. All culture experiments were performed in triplicate with a minimum of three wells per condition. Table 4 below illustrates a screen of the library against a number of BTSCs using ALAMARBLUE™ assay.

c-Src = target: T1, c-Src (Homo sapiens, UniProt P12931); experiment: HotSpot radiometric kinase assay, c-Src; format: biochemical; details: 5 uM compound, 10 μM ATP, duplicate (Data 1, Data 2); for remaining activity at 5 µM: read-out: % Enzyme activity relative to DMSO (control), c-Src
T1 construct: purchased Reaction Biology Corporation
Method: Briefly, this assay employs a radiometric detection system to measure kinase phosphoryl transfer activity.
Test compound was evaluated at a single dose of 5 μM in duplicate mode. […] Reactions were carried out at 10 μM ATP.
Preliminary screen against AKT, c-Src, ERK1, JaK1 and JaK2 was performed at Reaction Biology Corporation (www.reactionbiology.com, Malvern, Pa.) using the “HotSpot” assay platform. Specific kinase/substrate pairs along with their required cofactors were prepared in reaction buffer; 20 mM Hepes pH 7.5, 10 mM MgCl2, 1 mM EGTA, 0.02% Brij35, 0.02 mg/ml BSA, 0.1 mM Na3VO4, 2 mM DTT, 1% DMSO. The screen was completed in duplicate at a single concentration of 5 μM. The reaction well with the subject compound was treated with a mixture of ATP (Sigma, St. Louis Mo.) and ^33P ATP (Perkin Elmer, Waltham Mass.) to a final concentration of 10 μM. […] Reaction wells were kept at room temperature for 120 minutes, followed by spotting each of the reactions onto P81 ion exchange filter paper (Whatman Inc., Piscataway, N.J.). […] Background was subtracted using control reactions and the kinase activity data was expressed as the percent remaining kinase activity in test samples compared to vehicle (dimethyl sulfoxide) reactions. All IC50 values (table 3) and curve fitting were produced using Prism (GraphPad Software) (FIG. 5).

[1] = system: patient-derived pancreatic cancer line (Panc10.05); experiment: MTS cell survival, pancreatic cancer line; format: cell-based; details: Homo sapiens, Panc1005, Panc10.05, 72 h, read-out: ED50 (IC50)
Method: Low passage patient-derived pancreatic cancer line (Panc10.05) was plated in 96-well plates (3×10^3 per well) and allowed to attach overnight. STAT3 inhibitors 31, 41, 42 and 38 were added at indicated concentrations. Cell survival was measured 72 h after drug addition with the MTS assay.

[2] = system: patient-derived pancreatic cancer line (Pa03C); experiment: 3D culture cytotoxicity (Alamar Blue) with and without cancer-associated fibroblasts; format: cell-based; details: presence and absence of CAFs, Alamar Blue Day 11
Method: FIG. 11 illustrates the effects of STAT3 inhibitor 31 on low passage patient-derived pancreatic cancer line (Pa03C) plated in a 96-well plate coated with 1% Noble Agar in media containing 3% Matrigel, with and without cancer-associated fibroblasts. The ratio of the tumor to CAFs is 1:4. Tumor spheres begin to form around Day 3, and STAT3 inhibitor 31 added at Day 4 and 8. Cytotoxicity is assessed by fluorescence using Alamar Blue assay on Day 11.

[3] = system: multiple myeloma tumor cell lines; experiment: MTT cytotoxicity in multiple myeloma cell lines; format: cell-based; details: 12 of 15 multiple myeloma cell lines, read-out: ED50 (the source's name)
Method: For assessing MM cell viability, HMCL cells were seeded in 96-well plates in triplicate at a density of 20,000 cells/well and incubated with increasing concentrations of 16i and 21h or DMSO control and cell viability assessed by MTT (3-(4,5-dimethylthiazol)-2,5-diphenyl tetrazolium) colorimetric analysis. Results are reported at FIG. 12.

[4] = system: ErbB2 mammary breast tumour cell lines (NIC); experiment: CyQuant proliferation assay in ErbB2 mammary tumour cell lines; format: cell-based
Method: Compounds were assessed for inhibition of cell proliferation in ErbB2 mammary breast tumour cell lines (NIC) containing the activated form of ErbB2 using a CyQuant Assay. […] Three individual Mouse Mammary Tumour Virus ErbB2 mammary tumour cell lines (NIC) were resuspended in 10% FBS plus single quots DMEM media to a final concentration of 40,000 cells per 1 mL. Cells were plated at a concentration of 4,000 cells in 100 μL of media per well on 96 well NUNC plates and incubated for 24 h hours at 37° C. plus 5% CO2. […] Each condition was repeated in quadruplicate. At predetermined time points; at treatment, 24 h, 48 h and 72 h post treatment, the media was removed from the cells and the plates were stored at −80° C. wrapped in tin foil. When needed, all the plates were thawed to room temperature. Invitrogen's CyQuant Cell Proliferation Assay kit was used to measure DNA content. Following their directions, the cell lysis buffer was diluted 1:20 with water and then the CyQuant GR solution 1:400 in the lysis buffer. […] The plates were then incubated for 2-5 minutes protected from light, then read on a fluorescence microplate reader with filters for 480 nm excitation and 520 nm emission maxima. Quadruplicates were averaged and the error bars represent the S.E.M. In some cases the absorbance was normalized to the DMSO control.

T1 sequence (P12931 whole entry): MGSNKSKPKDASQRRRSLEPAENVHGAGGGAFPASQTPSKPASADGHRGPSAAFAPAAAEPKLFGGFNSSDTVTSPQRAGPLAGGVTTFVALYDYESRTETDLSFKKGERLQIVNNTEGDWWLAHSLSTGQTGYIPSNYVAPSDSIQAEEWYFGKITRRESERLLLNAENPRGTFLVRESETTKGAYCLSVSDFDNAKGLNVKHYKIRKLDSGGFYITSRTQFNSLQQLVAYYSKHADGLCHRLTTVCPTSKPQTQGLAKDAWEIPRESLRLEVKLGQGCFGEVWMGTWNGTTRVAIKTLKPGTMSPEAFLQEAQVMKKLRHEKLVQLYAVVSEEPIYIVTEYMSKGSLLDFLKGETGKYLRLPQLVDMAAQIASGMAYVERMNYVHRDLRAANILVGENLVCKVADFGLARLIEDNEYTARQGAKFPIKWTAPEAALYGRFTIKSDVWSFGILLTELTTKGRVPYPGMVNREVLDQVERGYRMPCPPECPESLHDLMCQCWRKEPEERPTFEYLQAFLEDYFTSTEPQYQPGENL

Structure (SMILES)	IC50 (147EF) [nM]	EC50 (127EF) [nM]	remaining activity at 5 µM (c-Src) [%]	IC50 [1] [nM]	killing of tumor cells grown in 3D cultures [2]	EC50 [3] [nM]	cell proliferation in 2071 NIC cells ([4]; 5 μM, CyQuant)	potency in comparison with BP1-102 ([4]; NIC cell lines 2071, 8518 and 9822)	% Enzyme activity relative to DMSO (control), c-Src (c-Src; remaining activity, listed as SH-05-07) [%]
CN(CC(=O)N(Cc1ccc(C2CCCCC2)cc1)c1ccc(C(=O)O)cc1)S(=O)(=O)c1c(F)c(F)c(F)c(F)c1F [Compound 31, 4-(N-(4-cyclohexylbenzyl)-2-(2,3,4,5,6-pentafluoro-N-methylphenylsulfonamido)acetamido)benzoic acid]	315	66 ± 33.9	50.8	6200	effectively kills tumor cells	2000 to 6000	completely inhibiting cell proliferation	more potent	–
CN(CC(=O)N(Cc1ccc(C2CCCCC2)cc1)c1ccc(C(=O)NO)cc1)S(=O)(=O)c1c(F)c(F)c(F)c(F)c1F [Compound 32, 4-(N-(4-cyclohexylbenzyl)-2-(2,3,4,5,6-pentafluoro-N-methylphenylsulfonamido)acetamido)-N-hydroxybenzamide]	588	–	58.3	–	–	–	–	–	54.21
